Laboratory results reported in ChEMBL document CHEMBL5674860, “Optimized Dual-Glo Assay to identify co-culture-induced drug vulnerabilities in 3D CRC models” (2024).

How the values were obtained:
Type in all cases: functional, Homo sapiens
Set-up in all cases: dose or concentration left out as unconfirmed
Colon cancer organoid [1] = assay: Optimized Dual-Glo assay to identify co-culture induced drug vulnerabilities using donated chemical probes and chemogenomics kinase set in O06 CRC organoid and F06 CAF mono and co-culture. […] Cell viability is reported both mono and co-culture models.
Colon cancer organoid [2] = assay: Optimized Dual-Glo assay to identify co-culture induced drug vulnerabilities using donated chemical probes and chemogenomics kinase set in O14 CRC organoid and F14 CAF mono and co-culture. […] Cell viability is reported both mono and co-culture models.
Colon cancer organoid [3] = assay: Optimized Dual-Glo assay to identify co-culture induced drug vulnerabilities using donated chemical probes and chemogenomics kinase set in O20 CRC organoid and F20 CAF mono and co-culture. […] Cell viability is reported both mono and co-culture models.
[4] = Culture type Co-Culture, Transduced with Lucferase2-P2A-EGFP lentivirus
[5] = Culture type Co-Culture, Transduced with Renilla-dsRed lentivirus
[6] = Culture type Mono-Culture, Transduced with Lucferase2-P2A-EGFP lentivirus
[7] = Culture type Mono-Culture, Transduced with Renilla-dsRed lentivirus

Row | Compound | Cell Viability (Colon cancer organoid [1]; [4]) | Cell Viability (Colon cancer organoid [1]; [5]) | Cell Viability (Colon cancer organoid [1]; [6]) | Cell Viability (Colon cancer organoid [1]; [7]) | Cell Viability (Colon cancer organoid [2]; [4]) | Cell Viability (Colon cancer organoid [2]; [5]) | Cell Viability (Colon cancer organoid [2]; [6]) | Cell Viability (Colon cancer organoid [2]; [7]) | Cell Viability (Colon cancer organoid [3]; [4]) | Cell Viability (Colon cancer organoid [3]; [5]) | Cell Viability (Colon cancer organoid [3]; [6]) | Cell Viability (Colon cancer organoid [3]; [7])
1 | CNC(=O)c1cc(C(=O)NC2CC2)cn(Cc2ccccc2)c1=O [GSK620] | 111.223% | 132.009% | 81.6367% | 131.621% | 179.546% | 145.239% | 105.323% | 134% | 92.6025% | 100.747% | 72.9667% | 110.848%
2 | COCc1nc2cnc3cc(-c4c(C)noc4C)c(OC[C@H]4CCNC4)cc3c2n1[C@H](C)c1ccccc1 [GSK778] | 81.063% | 183.714% | 53.5183% | 186.322% | 59.3767% | 280.444% | 39.3913% | 175.876% | 27.5933% | 143.906% | 31.8546% | 105.119%
3 | Cc1cc2c(-c3ccco3)cnc(N[C@@H]3CCN(C)C[C@H]3C(=O)NC3CCCCC3)c2[nH]c1=O [GSK789] | 76.5976% | 134.369% | 59.8107% | 179.691% | 80.165% | 245.195% | 48.5278% | 143.743% | 33.945% | 125.83% | 39.8308% | 103.931%
4 | Cc1cc2c(-c3ccco3)cnc(N[C@H]3CCN(C)C[C@@H]3C(=O)NC3CCCCC3)c2[nH]c1=O [GSK791] | 113.813% | 153.556% | 183.923% | 92.8694% | 95.0265% | 100.863% | 120.55% | 112.529% | 101.755% | 116.18% | 85.6153% | 75.9377%
5 | CNC(=O)c1cc(C(=O)N[C@H]2[C@@H]3COC[C@@H]32)cc2c1O[C@@H](CF)[C@@H]2c1ccccc1 [GSK943] | 83.6271% | 130.888% | 89.2117% | 119.155% | 119.043% | 94.0726% | 104.923% | 119.987% | 106.252% | 108.354% | 98.6986% | 128.773%
6 | CNC(=O)c1cc(C(=O)N[C@H]2[C@@H]3COC[C@@H]32)cc2c1O[C@H](CF)[C@H]2c1ccccc1 [GSK973] | 110.942% | 170.924% | 57.9314% | 146.399% | 93.0111% | 167.902% | 105.165% | 155.71% | 97.8368% | 135.509% | 77.6772% | 131.324%
7 | C[C@@H](Oc1cc(-n2cnc3ccc(CN4CCN(C)CC4)cc32)sc1C(N)=O)c1ccccc1C(F)(F)F [GSK-461364] | 8.2073% | 127.3% | 6.274% | 91.647% | 37.954% | 173.445% | 46.1468% | 90.9348% | 36.0345% | 141.481% | 13.8424% | 71.1921%
8 | O=C(O)c1ccc(-c2c[nH]c3ncc(-c4ccccc4)cc23)cc1C1CCCC1 [GSK-650394] | 150.298% | 125.274% | 142.061% | 114.363% | 84.2987% | 94.4983% | 153.467% | 103.115% | 93.9419% | 129.576% | 65.3151% | 121.845%
9 | CCn1cc(-c2ccnc3[nH]c(-c4cccc(CN(C)C)c4)cc23)c(-c2ccc(NC(=O)N(C)C)cc2)n1 [GSK-1070916] | 8.589% | 116.692% | 3.637% | 93.7927% | 29.7048% | 205.838% | 28.675% | 102.681% | 9.493% | 207.056% | 12.2557% | 100.034%
10 | COc1ccc(COc2ccc(Cc3cnc(N)nc3N)cc2OC)cc1 [GW632580X] | 84.8428% | 83.7807% | 109.175% | 109.596% | 102.637% | 115.835% | 144.397% | 94.931% | 200.024% | 84.9331% | 115.095% | 88.8877%
